Test [1] has as its system human corneal (HCE) cells. Briefly: Cell viability (XTT assay) after hyperosmolar stress, HCE cells. The settings on record: at 0.005% and 0.001% (w/v), 4 h and 8 h post-stress; FIG. 1. The class given is cell-based. As to the method:
A study was carried out to determine the osmoprotective capacity of sodium lipoate (A) during hyperosmolar stress on human conjunctival (WKD) and corneal (HCE) cells. In a second phase, tests were carried out to compare the effect of lipoic acid, glycerin (B), and taurine (C), individually and when the molecules were combined, on HCE cells under hyperosmolar stress conditions. The osmoprotective activity of A, then A with B and C, was evaluated by measuring cell viability in particular. To that end, cells were preincubated for 17 h with the test substance(s). Next, the medium was removed and the cells were subjected to hyperosmolar stress by addition of sodium chloride (100 mM NaCl) to the culture medium (M199 for the WKD cells and KSFM for the HCE cells). Cell-growth control cells were contacted with isotonic medium. Cell viability was analyzed pre-osmotic stress (0 h) in order to measure the effect of the molecules remaining in contact with the cells during the 17 h of incubation, then at 4 h, 8 h and 24 h post-induction of osmotic stress. The cell viability measurement was carried out via an XTT assay. Various concentrations of A were tested for the “molecule alone” tests: 0.0005%, 0.001%, 0.005%, 0.01% and 0.05% w/v. […] To ensure the validity and the significance of the data, the results obtained were analyzed statistically. […]
For orientation: Tetrazolium dyes change colour on reduction, which living cells bring about.

In a further test the test system is corneal cells. Briefly: Antioxidant effect on corneal cells. The class given is cell-based.

The structures appear in SMILES notation.

Consider `O=C(O)CCCCC1CCSS1` (centres unmarked) [Sodium Lipoate, 5-(1,2-dithiolan-3-yl)pentanoic acid], for which the “Osmoprotective activity against osmotic stress” value in test [1] is recorded as “high osmoprotective activity”. In the test with corneal cells, the Antioxidant effect entry is “rather weak”.

These data come from patent US11224588B2, “Combination of lipoic acid and taurine as osmoprotective agent” (OPHTALMIS MONACO, priority 2015, dated 2022).
